Consider 15 molecules from ChEMBL document CHEMBL1153251, “Biaryl piperidines as potent and selective delta opioid receptor ligands” (Bioorg Med Chem Lett, 2010).

In general, IC50 refers to the concentration that inhibits the measured activity by half. Higher therefore signals lower potency. What is called Ki is the dissociation constant of the complex between target and ligand, obtained from inhibition or displacement. A higher Ki goes with weaker binding. By CLint scaled is commonly meant a measure of how fast metabolising enzymes remove a compound, apart from limits set by blood flow. A higher CLint scaled goes with faster metabolism.

For data set [1], the target named is T1, Delta-type opioid receptor (Homo sapiens, UniProt P41143). The data set can be described thus: Antagonist activity at delta opioid receptor by GTPgammaS bunding assay. The data set is classed as functional.
Data set [2] addresses Kappa-type opioid receptor (Homo sapiens, UniProt P41145). Briefly: Displacement of [3H]diprenorphine from human kappa opioid receptor expressed in CHO cells by liquid scintillation counting. In general terms: Loss of bound radioactivity is the signal in a displacement assay; it reports binding, not function.
Another data set deals with Mu-type opioid receptor (Homo sapiens, UniProt P35372). Briefly: Displacement of [3H]diprenorphine from human mu opioid receptor expressed in CHO cells by liquid scintillation counting.
Data set [3] addresses T1, Delta-type opioid receptor. Briefly: Displacement of [3H]diprenorphine from human delta opioid receptor expressed in CHO cells by liquid scintillation counting.
Data set [4] in a line: (§1) Clearance in human liver microsomes. The data set is classed as ADME, Microsome. The conditions noted are these: liver microsomes. On the technique in general: Liver microsomes are vesicles of endoplasmic reticulum, rich in cytochrome P450 enzymes.
The next data set has as its system Liver microsomes. The description is as §1. The data set is classed as ADME, Microsome. To be noted: microsomes.

T1 sequence (P41143 whole entry): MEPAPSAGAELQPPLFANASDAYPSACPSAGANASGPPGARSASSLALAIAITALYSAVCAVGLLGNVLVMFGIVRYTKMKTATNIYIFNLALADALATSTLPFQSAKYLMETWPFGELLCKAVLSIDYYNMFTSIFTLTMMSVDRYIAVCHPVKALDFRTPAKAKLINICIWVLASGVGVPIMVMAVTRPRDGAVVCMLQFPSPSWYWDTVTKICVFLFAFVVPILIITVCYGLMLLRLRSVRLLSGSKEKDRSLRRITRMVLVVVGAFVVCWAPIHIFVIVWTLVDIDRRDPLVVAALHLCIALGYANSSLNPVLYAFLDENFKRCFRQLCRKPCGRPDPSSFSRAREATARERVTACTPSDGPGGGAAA
Kappa-type opioid receptor, sequence (P41145 whole entry): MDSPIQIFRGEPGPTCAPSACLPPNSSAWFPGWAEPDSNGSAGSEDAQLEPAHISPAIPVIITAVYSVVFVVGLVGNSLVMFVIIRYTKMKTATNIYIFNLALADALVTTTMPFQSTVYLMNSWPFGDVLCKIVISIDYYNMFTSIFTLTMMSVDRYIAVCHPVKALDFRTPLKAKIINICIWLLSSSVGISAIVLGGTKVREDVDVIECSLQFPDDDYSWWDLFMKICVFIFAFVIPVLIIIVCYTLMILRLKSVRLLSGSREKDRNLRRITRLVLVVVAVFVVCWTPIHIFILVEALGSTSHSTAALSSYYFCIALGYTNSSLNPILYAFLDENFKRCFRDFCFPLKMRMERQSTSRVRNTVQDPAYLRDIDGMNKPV
Mu-type opioid receptor, sequence (P35372 whole entry): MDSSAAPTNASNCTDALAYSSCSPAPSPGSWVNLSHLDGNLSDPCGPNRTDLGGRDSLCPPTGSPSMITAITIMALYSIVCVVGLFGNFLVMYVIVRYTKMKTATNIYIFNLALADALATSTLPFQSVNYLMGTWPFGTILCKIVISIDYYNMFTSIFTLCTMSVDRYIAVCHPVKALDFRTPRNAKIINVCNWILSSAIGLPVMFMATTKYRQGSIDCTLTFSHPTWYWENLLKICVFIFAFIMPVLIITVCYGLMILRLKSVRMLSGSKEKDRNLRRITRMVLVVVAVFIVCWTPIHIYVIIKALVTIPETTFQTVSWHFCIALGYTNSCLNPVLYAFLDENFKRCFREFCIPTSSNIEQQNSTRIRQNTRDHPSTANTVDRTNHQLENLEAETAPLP

In data set [1], `CCCCN1CCCC(c2ccc(C(=O)N(CC)CC)cc2)(c2cccc(O)c2)C1` (stereo not drawn) gave an IC50 of 0.055 µM. In addition, the Ki in data set [2] was greater than 0.89 µM; at Mu-type opioid receptor, greater than 0.89 µM; in data set [3] it was 0.0062 µM. In addition, the CLint scaled in data set [4] worked out at 113 mL/min/kg.

For the molecule `CCN(C)C(=O)c1ccc(C2(c3cccc(O)c3)CCCN(CC3CC3)C2)cc1` (stereo not drawn), the Ki is 0.066 µM in data set [2], 0.052 µM on Mu-type opioid receptor and 0.0022 µM in data set [3]. The molecule further had a CLint scaled in data set [4] of 70 mL/min/kg.

With `CCC(O)(CC)c1ccc(C2(c3cccc(C(N)=O)c3)CCN(CC3CC3)CC2)cc1`, 0.282 µM corresponded to half-maximal inhibition in data set [1] (IC50). Further, the Ki in data set [2] was 0.079 µM; at Mu-type opioid receptor, greater than 0.89 µM; in data set [3], 0.0023 µM. The CLint scaled in data set [4] came to 26.1 mL/min/kg.

On to `CCCC(C)CN1CCC(c2ccc(C(O)(CC)CC)cc2)(c2cccc(C(N)=O)c2)CC1` (stereo not drawn), for which, in data set [1], the half-maximal inhibitory concentration (IC50) is 0.0047 µM. Further, the Ki in data set [2] worked out at 0.045 µM; on Mu-type opioid receptor, 0.38 µM; in data set [3], 0.002 µM. In data set [4], this molecule registered a CLint scaled of 108 mL/min/kg.

`CCN(CC)C(=O)c1ccc(C2(c3cccc(C(N)=O)c3)CCCN(Cc3nccs3)C2)cc1` (stereo not drawn) had an IC50 in data set [1] of 0.012 µM. For the same molecule, the Ki is greater than 0.89 µM in data set [2], greater than 0.89 µM on Mu-type opioid receptor and 0.007 µM in data set [3]. Also, the CL result in the data set on Liver microsomes was “Not Active”.

Turning to `CC(C)(O)c1ccc(C2(c3cccc(O)c3)CCCN(CC3CC3)C2)cc1` (stereo not drawn), the figures for the Ki (in data set [2]; on Mu-type opioid receptor; in data set [3]) were 0.041 µM, 0.11 µM and 0.039 µM, respectively. The molecule further displayed a CLint scaled in data set [4] of 22 mL/min/kg.

`CCN(CC)C(=O)c1ccc(C2(c3cccc(O)c3)CCN(CC3CC3)CC2)cc1` showed an IC50 in data set [1] of 0.155 µM. For the same molecule, the Ki in data set [2] was 0.44 µM; on Mu-type opioid receptor, greater than 0.89 µM; in data set [3], 0.009 µM. This molecule also displayed a CLint scaled in data set [4] of 62.9 mL/min/kg.

As for `CCN(CC)C(=O)c1ccc(C2(c3cccc(O)c3)CCN(CCc3ccccc3)CC2)cc1`, the Ki in data set [2] is 0.095 µM; on Mu-type opioid receptor, 0.0665 µM; in data set [3], 0.0009 µM. Besides, the CLint scaled in data set [4] turned out to be 239 mL/min/kg.

As to `CCCC(C)CN1CCC(c2ccc(C(=O)N(CC)CC)cc2)(c2cccc(O)c2)CC1` (stereo not drawn), the Ki was greater than 0.89 µM in data set [2], greater than 0.89 µM on Mu-type opioid receptor and 0.0018 µM in data set [3]. Further, in the data set on Liver microsomes, the CL result is “Not Active”.

In the case of `CCN(CC)C(=O)c1ccc(C2(c3cccc(O)c3)CCCN(CC(F)(F)F)C2)cc1` (stereo not drawn), the Ki was 0.024 µM in data set [2], greater than 0.89 µM on Mu-type opioid receptor and 0.0029 µM in data set [3]. In data set [4], this molecule registered a CLint scaled greater than 300 mL/min/kg.

In data set [1], `CCCC(C)CN1CCC(c2ccc(C(=O)N(C)C)cc2)(c2cccc(O)c2)CC1` (stereo not drawn) gave an IC50 of 0.072 µM. Besides, the values for the Ki (in data set [2]; at Mu-type opioid receptor; in data set [3]) were 0.15 µM, greater than 0.89 µM and 0.011 µM, respectively. The molecule further had a CLint scaled in data set [4] of 80 mL/min/kg.

For `CCN(CC)C(=O)c1ccc(C2(c3cccc(O)c3)CCCN(CC3CC3)C2)cc1` (stereo not drawn), the IC50 in data set [1] is 0.0071 µM. Besides, the Ki in data set [2] is 0.024 µM; on Mu-type opioid receptor, 0.035 µM; in data set [3], 0.0008 µM. The same molecule yielded a CLint scaled in data set [4] of 89 mL/min/kg.

In data set [1], `CCN(CC)C(=O)c1ccc(C2(c3cccc(O)c3)CCCN(Cc3nccs3)C2)cc1` (stereo not drawn) yielded an IC50 of 0.016 µM. In addition, the values for the Ki (in data set [2]; on Mu-type opioid receptor; in data set [3]) were 0.163 µM, greater than 0.89 µM and 0.0035 µM, respectively. For the same molecule, in data set [4], the intrinsic clearance (CLint scaled) is greater than 300 mL/min/kg.

Regarding `CCN(CC)C(=O)c1ccc(C2(c3cccc(O)c3)CCCN(Cc3ncc[nH]3)C2)cc1` (stereo not drawn), the Ki in data set [2] is greater than 0.89 µM; at Mu-type opioid receptor, greater than 0.89 µM; in data set [3], 0.0012 µM. In data set [4], this molecule returned a CLint scaled of 230 mL/min/kg.

Regarding `C=CCN1CCC(c2ccc(C(=O)N(CC)CC)cc2)(c2cccc(O)c2)CC1`, the results for the Ki (in data set [2]; on Mu-type opioid receptor; in data set [3]) were 0.347 µM, greater than 0.89 µM and 0.0019 µM, respectively. The molecule also gave a CLint scaled in data set [4] of 34.6 mL/min/kg.
